Results: patent publication US20230066882A1, “Stable Reporter Flavivirus” (priority 2021, published 2023)

Test system: panel of stable reporter viruses (DENV1, DENV2, DENV3, DENV4, ZIKV, YFV, JEV)
Assay type: cell-based

C#C[C@@]1(O)[C@H](O)[C@@H](CO)O[C@H]1n1ccc2c(N)ncnc21 [NITD008]
EC50 values: potent
luciferase expression compared to control: decreased luciferase expression
